Results from patent publication US11872225B2, “Pyruvate kinase modulators and use thereof” (Agios Pharmaceuticals, Inc., priority 2017, dated 2024).

Biological target: wild type PKM2 (Homo sapiens, UniProt P14618)
Experiment: PKM2 Assay (LDH/NADH-coupled, absorbance at 340 nm)
Assay type: biochemical
Conditions: wild type PKM2 activation; 60 min preincubation at 25° C.; ADP 0.4 mM, PEP 0.11 mM; read-out: PKM2 WT AC50
Experimental: A compound described herein may be tested for its ability to activate PKM2. For simplicity, the activation activity of these compounds is represented as an AC50 in Table 2. In Tables 2, a compound described herein may have an AC50 of wild type PKM2.
PKM2 enzyme stock solution was diluted to prepare a 1.11× Reaction Mix (without ADP). 1 μL of test compound was first added to the wells followed by 40 μL of 1.11× Reaction Mix (without ADP) and incubated at room temperature (25° C.) for 60 min. The reaction was initiated with 10 μL ADP (0.4 mM final concentration), bringing the final Reaction Mix to 1×, and the reaction progress was measured as changes in absorbance at 340 nm wavelength at room temperature.
Test compound preparation: Test compounds were prepared at 50× final concentration in DMSO. 1 to 3 dilutions were made for 11 points (for example 50 μL of 5000 μM compound was added to 100 μL 100% DMSO to yield a 1667 μM, 50 μL of this added to 100 μL DMSO to yield 556 μM, and so forth). The compounds were added to the assay as a 1 to 50 dilution (1 μL in 50 μL) to yield a top concentration of 100 μM, decreasing 3-fold for 11 points.
Reaction Mix: PKM2 (5 ng/well, 0.1 μg/ml), ADP (0.4 mM), PEP (0.11 mM), NADH (180 μM), LDH (0.005 U/μL, Sigma #L3888), 1 mM DTT, 0.03% BSA in 1× Reaction Buffer
Reaction Buffer: 100 mM KCl, 50 mM Tris pH 7.5, 5 mM MgCl2.

Sequence of wild type PKM2 (P14618 whole entry): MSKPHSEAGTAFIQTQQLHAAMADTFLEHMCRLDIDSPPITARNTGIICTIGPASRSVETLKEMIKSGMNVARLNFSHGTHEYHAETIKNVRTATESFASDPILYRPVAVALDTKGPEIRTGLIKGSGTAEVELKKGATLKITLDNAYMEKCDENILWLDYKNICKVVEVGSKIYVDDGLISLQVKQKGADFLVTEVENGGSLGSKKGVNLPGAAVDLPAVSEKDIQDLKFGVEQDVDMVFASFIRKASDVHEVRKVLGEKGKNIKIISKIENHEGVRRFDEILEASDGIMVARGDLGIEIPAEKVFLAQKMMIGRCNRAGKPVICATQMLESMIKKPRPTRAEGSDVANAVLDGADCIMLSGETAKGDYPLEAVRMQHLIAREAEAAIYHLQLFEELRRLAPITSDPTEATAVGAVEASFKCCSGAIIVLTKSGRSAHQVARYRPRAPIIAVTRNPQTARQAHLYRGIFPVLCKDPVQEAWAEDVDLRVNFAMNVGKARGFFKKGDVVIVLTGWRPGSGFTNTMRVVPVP

Going from `Cn1c2nc(Cn3ccnc3)sc2c2cnn(Cc3ccnc(N)n3)c(=O)c21` [Compound 144] to `Cn1c2nc(Cc3cc[nH]n3)sc2c2cnn(Cc3ccnc(N)n3)c(=O)c21` [Compound 134], the AC50 falls from > 0.8 µM to < 0.3 µM.

First: Cn1c2nc(C#N)sc2c2cnn(Cc3csc(N)n3)c(=O)c21 [Compound 54]
Second: Cc1nc2c(s1)c1cnn(Cc3cccc(F)n3)c(=O)c1n2C [Compound 9]
The AC50 of the first is lower: < 0.3 µM for the first, 0.301 to 0.8 µM for the second.

First: Cn1c2nc(Cc3ccns3)sc2c2cnn(Cc3cccc4[nH]ncc34)c(=O)c21 [Compound 82]
Second: Cn1c2nc(Cc3cnoc3)sc2c2cnn(Cc3cccc4[nH]ncc34)c(=O)c21 [Compound 65]
The AC50 of the first is higher: 0.301 to 0.8 µM for the first, < 0.3 µM for the second.

`Cn1c2nc(-n3cnc(CS(=O)(=O)c4ccccc4)c3)sc2c2cnn(Cc3cccc4[nH]ncc34)c(=O)c21` [Compound 67] and `Cn1c2nc(C(c3cccc4[nH]ncc34)S(=O)(=O)c3ccccc3)sc2c2cnn(Cc3cccc4[nH]ncc34)c(=O)c21` (stereo not shown) [Compound 50] cannot be ordered by AC50: > 0.8 µM for the first, > 0.8 µM for the second.

`Cn1c2nc(Cc3cc[nH]n3)sc2c2cnn(Cc3cccc4nn[nH]c34)c(=O)c21` [Compound 77] and `Cn1c2nc(Cc3cc[nH]n3)sc2c2cnn(Cc3cccc4c3CCN4)c(=O)c21` [Compound 85] cannot be ordered by AC50: < 0.3 µM for the first, < 0.3 µM for the second.

First: Cn1cc(Cc2nc3c(s2)c2cnn(Cc4cccc5[nH]ncc45)c(=O)c2n3C)cn1 [Compound 66]
Second: Cn1c2nc(Cc3cncnc3)sc2c2cnn(Cc3cccc4[nH]ncc34)c(=O)c21 [Compound 56]
The AC50 of the first is lower: < 0.3 µM for the first, > 0.8 µM for the second.

`Cn1c2nc(Cc3csc(CO)n3)sc2c2cnn(Cc3nccs3)c(=O)c21` [Compound 93] and `Cn1c2nc(Cc3csc(CO)n3)sc2c2cnn(Cc3cc[nH]n3)c(=O)c21` [Compound 90] cannot be ordered by AC50: < 0.3 µM for the first, < 0.3 µM for the second.

`O=c1c2c(cnn1Cc1ccccc1)c1sc(Cc3cc[nH]n3)nc1n2Cc1ccccc1` [Compound 142] and `CCn1c2nc(Cc3cc[nH]n3)sc2c2cnn(Cc3ccccc3)c(=O)c21` [Compound 138] cannot be ordered by AC50: > 0.8 µM for the first, > 0.8 µM for the second.

Compared with `COC(=O)C(C(=O)OC)c1nc2c(s1)c1cnn(Cc3cccc4[nH]ncc34)c(=O)c1n2C` [Compound 43], `COC(=O)C(c1cc[nH]n1)c1nc2c(s1)c1cnn(Cc3cccc4[nH]ncc34)c(=O)c1n2C` (stereo not shown) [Compound 58] is higher in AC50: < 0.3 µM for the first, > 0.8 µM for the second.

First: Cn1c2nc(Cc3cc[nH]n3)sc2c2cnn(Cc3ccc(C(N)=O)cc3)c(=O)c21 [Compound 61]
Second: Cn1c2nc(Cc3cc[nH]n3)sc2c2cnn(Cc3ccc(C(N)=O)cn3)c(=O)c21 [Compound 119]
The AC50 of the first is higher: > 0.8 µM for the first, 0.301 to 0.8 µM for the second.

First: Cc1nc2c(s1)c1cnn(Cc3cccc4[nH]ncc34)c(=O)c1n2C [Compound 8]
Second: Cn1c2nc(CN)sc2c2cnn(Cc3cccc4[nH]ncc34)c(=O)c21 [Compound 49]
The AC50 of the first is lower: < 0.3 µM for the first, 0.301 to 0.8 µM for the second.

`CSc1nc2c(s1)c1cnn(Cc3ccc(S(N)(=O)=O)cc3)c(=O)c1n2C` [Compound 44] and `Cc1nc2c(s1)c1cnn(Cc3ccc(N)cc3)c(=O)c1n2C` [Compound 18] cannot be ordered by AC50: > 0.8 µM for the first, > 0.8 µM for the second.

First: Cn1c2nc(Cn3cnnc3)sc2c2cnn(Cc3cccc4[nH]ncc34)c(=O)c21 [Compound 102]
Second: CNCc1nc2c(s1)c1cnn(Cc3cccc4[nH]ncc34)c(=O)c1n2C [Compound 46]
The AC50 of the first is higher: 0.301 to 0.8 µM for the first, < 0.3 µM for the second.

`Cn1c2nc(Cc3cc[nH]n3)sc2c2cnn(Cc3[nH]ncc3Cl)c(=O)c21` [Compound 103] and `Cn1c2nc(Cc3cc[nH]n3)sc2c2cnn(Cc3n[nH]cc3F)c(=O)c21` [Compound 105] cannot be ordered by AC50: < 0.3 µM for the first, < 0.3 µM for the second.

First: CC(=O)Nc1ccc(F)c(Cn2ncc3c4sc(Cn5ccnc5)nc4n(C)c3c2=O)n1 [Compound 130]
Second: Cn1c2nc(Cn3ccnc3)sc2c2cnn(Cc3cccc(C(N)=O)c3)c(=O)c21 [Compound 129]
The AC50 of the first is higher: > 0.8 µM for the first, < 0.3 µM for the second.

First: CCOC(=O)c1cccc(Cn2ncc3c4sc(C)nc4n(C)c3c2=O)c1 [Compound 4]
Second: Cc1nc2c(s1)c1cnn(Cc3cccc(F)c3)c(=O)c1n2C [Compound 2]
The AC50 of the first is higher: 0.301 to 0.8 µM for the first, < 0.3 µM for the second.

`Cn1cc(CC(N)=O)c(Cn2ncc3c4sc(Cc5cc[nH]n5)nc4n(C)c3c2=O)n1` [Compound 125] and `Cn1cc(C(N)=O)c(Cn2ncc3c4sc(Cc5cc[nH]n5)nc4n(C)c3c2=O)n1` [Compound 116] cannot be ordered by AC50: > 0.8 µM for the first, > 0.8 µM for the second.

First: COc1cccc(Cn2ncc3c4sc(CC5CCCCC5)nc4n(C)c3c2=O)c1 [Compound 19]
Second: COc1cccc(Cn2ncc3c4sc(C(=O)c5ccccc5)nc4n(C)c3c2=O)c1 [Compound 1]
The AC50 of the first is higher: > 0.8 µM for the first, < 0.3 µM for the second.

`Cn1c2nc(Cc3n[nH]cc3C(F)(F)F)sc2c2cnn(Cc3cccc4[nH]ncc34)c(=O)c21` [Compound 59] and `Cn1c2nc(Cc3ccc(Cl)nc3)sc2c2cnn(Cc3cccc4[nH]ncc34)c(=O)c21` [Compound 55] cannot be ordered by AC50: > 0.8 µM for the first, > 0.8 µM for the second.

First: Cc1nc2c(s1)c1cnn(Cc3ccc([N+](=O)[O-])cc3)c(=O)c1n2C [Compound 17]
Second: Cc1nc2c(s1)c1cnn(Cc3cccc([N+](=O)[O-])c3)c(=O)c1n2C [Compound 16]
The AC50 of the first is higher: > 0.8 µM for the first, 0.301 to 0.8 µM for the second.

`Cn1c2nc(Cc3n[nH]cc3F)sc2c2cnn(Cc3cc[nH]n3)c(=O)c21` [Compound 111] and `Cn1c2nc(Cc3ncsc3F)sc2c2cnn(Cc3cc[nH]n3)c(=O)c21` [Compound 112] cannot be ordered by AC50: < 0.3 µM for the first, < 0.3 µM for the second.

First: Cn1c2nc(C3(c4ccccc4)CC3)sc2c2cnn(Cc3cccc4[nH]ncc34)c(=O)c21 [Compound 53]
Second: COC(=O)C(c1ccccc1)c1nc2c(s1)c1cnn(Cc3cccc4[nH]ncc34)c(=O)c1n2C (stereo not shown) [Compound 51]
The AC50 of the first is higher: > 0.8 µM for the first, < 0.3 µM for the second.

Compared with `CSc1nc2c(s1)c1cnn(Cc3ccnc(=O)[nH]3)c(=O)c1n2C` [Compound 35], `Cn1c2nc([S+](C)[O-])sc2c2cnn(Cc3ccnc(N)c3)c(=O)c21` (stereo not shown) [Compound 29] is lower in AC50: > 0.8 µM for the first, 0.301 to 0.8 µM for the second.

`Cn1c2nc(Cc3ccc(C(N)=O)cc3)sc2c2cnn(Cc3cccc4[nH]ncc34)c(=O)c21` [Compound 42] and `Cn1c2nc(Cc3csc(C(N)=O)n3)sc2c2cnn(Cc3cccc4[nH]ncc34)c(=O)c21` [Compound 79] cannot be ordered by AC50: > 0.8 µM for the first, > 0.8 µM for the second.

`Cn1c2nc(Cc3cc[nH]n3)sc2c2cnn(Cc3ncns3)c(=O)c21` [Compound 94] and `Cn1c2nc(Cc3cc[nH]n3)sc2c2cnn(Cc3nccs3)c(=O)c21` [Compound 78] cannot be ordered by AC50: < 0.3 µM for the first, < 0.3 µM for the second.

`Cn1c2nc(Cc3cc[nH]n3)sc2c2cnn(Cc3cccc(N)n3)c(=O)c21` [Compound 74] and `Cn1c2nc(Cc3c[nH]nn3)sc2c2cnn(Cc3cc[nH]n3)c(=O)c21` [Compound 100] cannot be ordered by AC50: < 0.3 µM for the first, < 0.3 µM for the second.

Compared with `Cn1c2nc([S+](C)[O-])sc2c2cnn(Cc3cnc(N)nc3)c(=O)c21` (stereo not shown) [Compound 34], `Cc1nc2c(s1)c1cnn(Cc3cn[nH]c3)c(=O)c1n2C` [Compound 26] is lower in AC50: > 0.8 µM for the first, 0.301 to 0.8 µM for the second.

First: CSc1nc2c(s1)c1cnn(Cc3csc(-n4c(C)ccc4C)n3)c(=O)c1n2C [Compound 47]
Second: Cn1ccc(Cn2ncc3c4sc(C(=O)c5cc[nH]n5)nc4n(C)c3c2=O)n1 [Compound 122]
The AC50 of the first is higher: > 0.8 µM for the first, < 0.3 µM for the second.

Going from `Cn1c2nc(C(O)c3ccccn3)sc2c2cnn(Cc3cccc4[nH]ncc34)c(=O)c21` (stereo not shown) [Compound 48] to `C=Cc1nc2c(s1)c1cnn(Cc3cccc4[nH]ncc34)c(=O)c1n2C` [Compound 39], the AC50 falls from > 0.8 µM to < 0.3 µM.

Compared with `Cc1nc2c(s1)c1cnn(Cc3ccc4nn[nH]c4c3)c(=O)c1n2C` [Compound 6], `Cc1nc2c(s1)c1cnn(Cc3ccc(CO)cc3)c(=O)c1n2C` [Compound 14] is higher in AC50: 0.301 to 0.8 µM for the first, > 0.8 µM for the second.

`Cn1c2nc(Cn3cnnc3)sc2c2cnn(Cc3cc[nH]n3)c(=O)c21` [Compound 106] and `COCc1cn(C)nc1Cn1ncc2c3sc(Cc4cc[nH]n4)nc3n(C)c2c1=O` [Compound 120] cannot be ordered by AC50: > 0.8 µM for the first, > 0.8 µM for the second.

First: Cn1c2nc(Cc3cc[nH]n3)sc2c2cnn(Cc3ncsc3C(F)(F)F)c(=O)c21 [Compound 95]
Second: Cn1c2nc(Cc3cc[nH]n3)sc2c2cnn(CCc3cccnc3)c(=O)c21 [Compound 136]
The AC50 of the first is higher: > 0.8 µM for the first, 0.301 to 0.8 µM for the second.

Going from `COc1cccc(Cn2ncc3c4sc(C(=O)c5cccc(O)c5)nc4n(C)c3c2=O)c1` [Compound 21] to `CC(=O)c1cccc(CC(c2cc[nH]n2)c2nc3c(s2)c2cnn(Cc4cccc(C(C)=O)c4)c(=O)c2n3C)c1` (stereo not shown) [Compound 71], the AC50 rises from < 0.3 µM to > 0.8 µM.

Compared with `CCOC(c1cscn1)c1nc2c(s1)c1cnn(Cc3c[nH]nn3)c(=O)c1n2C` (stereo not shown) [Compound 114], `Cn1ccc(Cc2nc3c(s2)c2cnn(Cc4ccn[nH]4)c(=O)c2n3C)n1` [Compound 110] is lower in AC50: > 0.8 µM for the first, < 0.3 µM for the second.

`CCOC(=O)Cn1ncc2c3sc(C)nc3n(C)c2c1=O` [Compound 24] and `Cc1nc2c(s1)c1cnn(CO)c(=O)c1n2C` [Compound 7] cannot be ordered by AC50: > 0.8 µM for the first, > 0.8 µM for the second.

First: Cn1c2nc(Cc3cc[nH]n3)sc2c2cnn(Cc3cccc4c3NS(=O)(=O)N4)c(=O)c21 [Compound 98]
Second: Cn1c2nc(NC(=O)Cc3cc[nH]n3)sc2c2cnn(Cc3cccc4[nH]ncc34)c(=O)c21 [Compound 64]
The AC50 of the first is lower: 0.301 to 0.8 µM for the first, > 0.8 µM for the second.

In the case of `Cn1c2nc(Cc3ccccn3)sc2c2cnn(CC3CCOCC3)c(=O)c21` [Compound 139], the AC50 is reported as > 0.8 µM.
